Data from patent US20240109843A1, “BENZALDEHYDE COMPOUNDS WITH DIRECT POLYMER DESTABILIZING EFFECTS TO TREAT SICKLE CELL DISEASE” (VIRGINIA COMMONWEALTH UNIVERSITY, priority 2018, published 2024).

Experiments:
[1] = test system: sickle red blood cells; experiment: Antisickling study with human sickle blood under 2.5% oxygen; type: cell-based; conditions: Homo sapiens, Erythrocyte, sickle RBCs, 2.5% oxygen, read-out: sickling inhibition
Summary of the method: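 Homozygous SCD blood at 20% hematocrit preincubated with compound (0.5, 1, 2 mM) under air for 1 h at 37 °C, then under 2.5% O2 for 1 h. Cells fixed in 2% glutaraldehyde without air exposure; sickling scored by bright-field morphology at 40×.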

[2] = molecular target: T1, Hb (Homo sapiens, UniProt P69905); experiment: Drug partitioning studies, fixed and unfixed Hb adducts in non-sickling AA blood; type: cell-based; design: Hemoglobin modification, studies using non-sickling AA blood; from tissue; host or cells: non-sickling (AA) human blood, red blood cells; conditions: 2 mM
T1 sequence (P69905 2-142 limits assumed): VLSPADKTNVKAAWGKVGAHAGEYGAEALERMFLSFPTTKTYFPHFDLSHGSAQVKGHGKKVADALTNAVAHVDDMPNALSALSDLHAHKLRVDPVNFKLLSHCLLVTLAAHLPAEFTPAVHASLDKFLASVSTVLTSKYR
T1 sequence (P68871 2-147 partner limits assumed): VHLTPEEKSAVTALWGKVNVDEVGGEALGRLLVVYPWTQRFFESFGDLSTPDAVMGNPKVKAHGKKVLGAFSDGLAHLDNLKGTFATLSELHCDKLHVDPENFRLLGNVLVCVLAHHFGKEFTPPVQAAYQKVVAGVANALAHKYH
Summary of the method: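 Non-sickling blood was incubated with test molecules and lysed either in water (unfixed) or in 50 mM sodium borohydride (fixed). Hb adducts were quantified by cation-exchange HPLC as a fraction of total Hb. The partitioning ratio is fixed over unfixed modification and reflects intracellular Hb binding after RBC membrane permeation.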

[3] = molecular target: T1, Hb; experiment: Oxygen equilibrium curve (OEC) studies with normal whole blood; type: cell-based; design: Hemoglobin modification, studies using non-sickling AA blood; from tissue; host or cells: non-sickling (AA) human blood, red blood cells; conditions: normal whole blood, 0.5, 1, 2 mM
Summary of the method: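 Whole human blood at 30% hematocrit incubated with compound at 0.5, 1.0 or 2.0 mM (DMSO) or without. After equilibration, pO2 and sO2 measured by automated blood gas analyser across saturation levels, and the oxygen equilibrium curve fitted by nonlinear regression.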

[4] = molecular target: T2, sickle Hb (Homo sapiens, UniProt P69905); experiment: Oxygen equilibrium (P50 shift) of lysates from treated sickle blood; type: cell-based; conditions: 0.5, 1 and 2 mM, SS blood
T2 construct: Blood suspensions from subjects with homozygous SCD; from tissue; host or cells: blood suspensions (20% hematocrit) from donors with homozygous SCD; lysates of the treated red cells
T2 sequence (P69905 2-142 limits assumed): as the sequence (P69905 2-142 limits assumed) above
Method: Blood suspensions from subjects with homozygous SCD (resuspended in Hemox™ buffer to a final hematocrit 20%) were incubated under air in the absence or presence of the compounds (0.5 mM, 1 mM and 2 mM) at 37° C. for 1 h to ensure that binding had attained equilibrium. The suspensions were then incubated under hypoxic conditions (2.5% oxygen/97.5% nitrogen) at 37° C. for 1 h. Aliquot samples were fixed with 2% glutaraldehyde solution without exposure to air, and then subjected to microscopic morphological analysis of bright field images (at 40× magnification) of single layer cells on an Olympus BX40 microscope fitted with an Infinity Lite B camera (Olympus), and the coupled Image Capture software. The residual samples were washed in phosphate-buffer saline, and hemolyzed in hypotonic lysis buffer for subsequent Hb-modification and oxygen equilibrium analyses.
For oxygen equilibrium studies, approximately 100 μL aliquot samples from the above clarified lysate were added to 4 mL of 0.1M potassium phosphate buffer, pH 7.0, in cuvettes and subjected to hemoximetry analysis using a Hemox™ Analyzer (TCS Scientific Corp.) to assess P50 shifts. Degree of P50 shift (ΔP50) was expressed as percentage fractions of control DMSO-treated samples.

[5] = Single-dose oral pharmacokinetics in rats; type: in vivo, Sprague Dawley rats; conditions: oral administration, data not shown
Method: Single doses of each compound were administered as oral suspensions by gavage in 0.5% carboxy methylcellulose at 100 mg/kg. Whole blood levels were collected for at least 72 hours after dose administration. Bioanalyses were performed with liquid chromatography-tandem mass spectrometry […].
Single-dose pharmacokinetics (PK) in male Sprague Dawley (SD) rats (n=4) were assessed for each compound, and the maximum or peak whole blood concentration and area under the curve are shown in Table 5.

Fixed Adducts (%) ([2]; 6 biological replicates): 96.1 ± 1.1% | Unfixed Adduct (%) ([2]; 6 biological replicates): 91.8 ± 11.6% | Partitioning Ratio (%) ([2]; fixed relative to unfixed adducts): 102.2 ± 8.0% | effect on Hb oxygen binding property (OEC) [3]: most significant activities
SMILES: COC(=O)c1ccc(COc2cccc(O)c2C=O)cn1 [PP14, Methyl 5-((2-formyl-3-hydroxyphenoxy)methyl)picolinate]
inhibition at 500 µM ([1]; 0.5 mM): > 35% | inhibition at 1000 µM ([1]; 1 mM): > 70% | increase of Hb affinity for oxygen in sickle blood (in words) [4]: only marginally increasing Hb affinity for oxygen | metabolism upon oral administration [5]: rapidly metabolizes into its carboxylic acid metabolite
